Laboratory results taken from ChEMBL document CHEMBL1833951, “Diterpenes from the Hainan soft coral Lobophytum cristatum Tixier-Durivault” (J Nat Prod, 2011).

How the values were obtained:
[1] = test system: HCT-116; assay: Cytotoxicity against human HCT116 cells by SRB assay; format: functional, cell-based
[2] = test system: A549; assay: Cytotoxicity against human A549 cells by MTT assay; format: functional, cell-based

SMILES	IC50 [1]	IC50 [2]
C=C(CCC=C(C)C)[C@H]1CC[C@]2(C)CCCC(=C)[C@H]2C1 [LOBOPHYTUMIN C]	37.1 µM	35.7 µM
C=C(CCC=C(C)C)[C@H]1CC[C@@]2(C)CCC=C(C)[C@@H]2C1 [LOBOPHYTUMIN D]	35.7 µM	36.7 µM
COC(=O)Nc1nc2cc(C(=O)c3cccs3)ccc2[nH]1 [NOCODAZOLE]	0.173 µM	0.087 µM
